In the assay the target is human IDO1 (Homo sapiens, UniProt P14902). Kind of assay: Assessment of human IDO-1 inhibitory activity in HEK cells (human IDO1/HEK293 cells, kynurenine read-out with Ehrlich reagent, absorbance 490 nm). Type of assay: cell-based. The note with it: HEK Human IDO-1 cellular assay. The arrangement: expressed in transfected cells. An outline of the steps: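 Kynurenine output from stably IDO1-transfected HEK293 cells (10,000/well, phenol red-free RPMI, 10% FBS) after 20 h compound exposure at 37 °C. The reaction was stopped with 0.2% TCA and heated 30 min at 50 °C, then the supernatant was mixed with Ehrlich reagent and read at 490 nm. IC50 was set against DMSO and a 500 nM reference standard as 0 and 100% inhibition.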
Sequence of human IDO1 (P14902 whole entry): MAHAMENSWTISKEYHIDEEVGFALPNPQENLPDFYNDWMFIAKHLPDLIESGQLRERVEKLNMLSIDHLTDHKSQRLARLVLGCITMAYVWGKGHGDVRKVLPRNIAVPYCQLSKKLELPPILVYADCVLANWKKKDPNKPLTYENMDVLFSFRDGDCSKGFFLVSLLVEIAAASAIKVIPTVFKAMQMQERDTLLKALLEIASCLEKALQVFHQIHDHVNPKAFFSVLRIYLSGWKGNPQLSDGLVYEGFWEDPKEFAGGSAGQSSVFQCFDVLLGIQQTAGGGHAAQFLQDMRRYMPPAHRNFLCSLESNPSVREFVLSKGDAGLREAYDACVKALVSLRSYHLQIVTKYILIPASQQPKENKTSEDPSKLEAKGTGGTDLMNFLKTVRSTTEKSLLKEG

Structures are written as SMILES.

Our source for the IC50 values is US9790169B2, “IDO inhibitors” (BRISTOL-MYERS SQUIBB COMPANY, priority 2015, dated 2017).

One may read the IC50 as the concentration that inhibits the measured activity by half. For the compound `CC[C@H](CC(=O)O)c1ccc(N(CC)C2CCOCC2)c(Nc2ccc(OCC3CC3)cc2)c1` (single isomer, unassigned) [Example 516], the IC50 is less than 5 nM.
The figure for `CCc1ccc(Nc2cc([C@H](CC)CC(=O)O)ccc2N(CC)C2CCOCC2)cc1` (single isomer, unassigned) [Example 517] is less than 5 nM; for `CC[C@H](CC(=O)O)c1ccc(N(CC)C2CCOCC2)c(Nc2ccc(OC)nc2)c1` (single isomer, unassigned) [Example 518] it is less than 5 nM.
In the case of `CC[C@H](CC(=O)O)c1ccc(N(CC)C2CCOCC2)c(Nc2cnc(OC)nc2)c1` (single isomer, unassigned) [Example 519], the IC50 is less than 5 nM.
The figure for `CC[C@H](CC(=O)O)c1ccc(N(CC)C2CCOCC2)c(Nc2cnc(OCC3CC3)nc2)c1` (single isomer, unassigned) [Example 520] is less than 5 nM; for `CC[C@H](CC(=O)O)c1ccc(N(CC)C2CCOCC2)c(Nc2ccc(Cl)c(OC)c2)c1` (single isomer, unassigned) [Example 521] it is less than 50 nM.
As for `CCOc1ccc(Nc2cc([C@H](CC)CC(=O)O)ccc2N(CC)C2CCOCC2)nc1` (single isomer, unassigned) [Example 522], the IC50 was less than 5 nM.
As to `CC[C@H](CC(=O)O)c1ccc(N(CC)C2CCOCC2)c(Nc2cn3ccnc3cn2)c1` (single isomer, unassigned) [Example 523], the IC50 is more than 50 nM.
`CC[C@H](CC(=O)O)c1ccc(N(CC)C2CCOCC2)c(Nc2ccc3nc(C)sc3c2)c1` (single isomer, unassigned) [Example 524]: the IC50 is less than 50 nM.
As to `CC[C@H](CC(=O)O)c1ccc(N(CC)C2CCOCC2)c(NC(=O)Nc2ccc(Cl)cc2F)c1` (single isomer, unassigned) [Example 526], the IC50 is less than 5 nM.
As for `CC[C@H](CC(=O)O)c1ccc(N(CC)C2CCOCC2)c(NC(=O)Nc2ccc(F)cc2)c1` (single isomer, unassigned) [Example 527], the IC50 was less than 50 nM.
Turning to `CCOc1ccc(NC(=O)Nc2cc([C@H](CC)CC(=O)O)ccc2N(CC)C2CCOCC2)cc1` (single isomer, unassigned) [Example 528], the IC50 is less than 50 nM.
Regarding `CC[C@H](CC(=O)O)c1ccc(N(CC)C2CCOCC2)c(NC(=O)Nc2ccc(OC)cc2)c1` (single isomer, unassigned) [Example 529], the IC50 was less than 50 nM.
As to `CC[C@H](CC(=O)O)c1ccc(N(CC)C2CCOCC2)c(NC(=O)Nc2ccc(OC)cc2F)c1` (single isomer, unassigned) [Example 530], the IC50 was less than 5 nM.
As to `CC[C@H](CC(=O)O)c1ccc(N(CC)C2CCOCC2)c(NC(=O)Nc2ccc(Cl)cc2)c1` (single isomer, unassigned) [Example 531], the IC50 is less than 5 nM.
As for `CC[C@H](CC(=O)O)c1ccc(N(CC)C2CCOCC2)c(NC(=O)Nc2ccc(Cl)nc2)c1` (single isomer, unassigned) [Example 532], the IC50 was less than 50 nM.
Take `CC[C@H](CC(=O)O)c1ccc(N(CC)C2CCOCC2)c(NC(=O)Nc2ccc3c(c2)CS(=O)(=O)C3)c1` (single isomer, unassigned) [Example 533]: the IC50 is more than 50 nM.
The figure for `CC[C@H](CC(=O)O)c1ccc(N(CC)C2CCOCC2)c(NC(=O)Nc2cc(C)on2)c1` (single isomer, unassigned) [Example 534] is more than 50 nM; for `CCCN(c1ccc([C@@H](CC)CC(=O)O)cc1Nc1cnc(OCC)nc1)C1CCOCC1` (single isomer, unassigned) [Example 535] it is less than 5 nM.
For `CCCN(c1ccc([C@@H](CC)CC(=O)O)cc1Nc1ccc(C#N)cc1)C1CCOCC1` (single isomer, unassigned) [Example 536], the IC50 is less than 5 nM.
With `CCCN(c1ccc([C@@H](CC)CC(=O)O)cc1Nc1ccc2nc(C)sc2c1)C1CCOCC1` (single isomer, unassigned) [Example 537], the IC50 was less than 5 nM.
In the case of `CCCN(c1ccc([C@@H](CC)CC(=O)O)cc1Nc1ccc(F)cc1)C1CCOCC1` (single isomer, unassigned) [Example 538], the IC50 was less than 5 nM.
To `CCCN(c1ccc([C@@H](CC)CC(=O)O)cc1Nc1ccc2c(c1)OC(F)(F)O2)C1CCOCC1` (single isomer, unassigned) [Example 539] belongs less than 5 nM; to `CCCN(c1ccc([C@@H](CC)CC(=O)O)cc1Nc1cnc(OC)nc1)C1CCOCC1` (single isomer, unassigned) [Example 540], less than 5 nM.
The figure for `CCCN(c1ccc([C@@H](CC)CC(=O)O)cc1Nc1ccc(Cl)cc1)C1CCOCC1` (single isomer, unassigned) [Example 541] is less than 5 nM; for `CCCN(c1ccc([C@@H](COC)CC(=O)O)cc1Nc1ccc2nc(C)sc2c1)C1CCOCC1` (single isomer, unassigned) [Example 560] it is less than 50 nM; for `CCCN(c1ccc([C@@H](COC)CC(=O)O)cc1Nc1ccc2c(c1)OC(F)(F)O2)C1CCOCC1` (single isomer, unassigned) [Example 561] it is more than 50 nM.
As for `CCCN(c1ccc([C@@H](COC)CC(=O)O)cc1Nc1ccc(F)cc1)C1CCOCC1` (single isomer, unassigned) [Example 562], the IC50 is less than 5 nM.
With `CCCN(c1ccc([C@@H](COC)CC(=O)O)cc1Nc1cnc(OCC2CC2)nc1)C1CCOCC1` (single isomer, unassigned) [Example 563], the IC50 was less than 50 nM.
To `CCCN(c1ccc([C@@H](COC)CC(=O)O)cc1Nc1ccc(Cl)cc1)C1CCOCC1` (single isomer, unassigned) [Example 564] belongs less than 5 nM; to `CCOc1ncc(Nc2cc(C(CC(=O)O)c3ccccc3)ccc2N(CC)C2CCOCC2)cn1` (single isomer, unassigned) [Example 578, 3-(3-((2-Ethoxypyrimidin-5-yl)amino)-4-(ethyl(tetrahydro-2H-pyran-4-yl)amino)phenyl)-3-phenylpropanoic acid], less than 50 nM; to `CCN(c1ccc(C(CC(=O)O)c2ccccc2)cc1Nc1ccc2nc(C)sc2c1)C1CCOCC1` (single isomer, unassigned) [Example 579, 3-(4-(ethyl(tetrahydro-2H-pyran-4-yl)amino)-3-((2-methylbenzo[d]thiazol-6-yl)amino)phenyl)-3-phenylpropanoic acid], more than 50 nM.
As for `CCN(c1ccc(C(CC(=O)O)c2ccccc2)cc1Nc1ccc(Cl)cc1)C1CCOCC1` (single isomer, unassigned) [Example 580, 3-(3-((4-chlorophenyl)amino)-4-(ethyl(tetrahydro-2H-pyran-4-yl)amino)phenyl)-3-phenylpropanoic acid], the IC50 is less than 5 nM.
With `CCN(c1ccc(C(CC(=O)O)c2ccccc2)cc1Nc1ccc(C#N)cc1)C1CCOCC1` (single isomer, unassigned) [Example 581, 3-(3-((4-cyanophenyl)amino)-4-(ethyl(tetrahydro-2H-pyran-4-yl)amino)phenyl)-3-phenylpropanoic acid], the IC50 is less than 5 nM.
In the case of `CCN(c1ccc(C(CC(=O)O)c2ccccc2)cc1Nc1ccc(OC(F)F)cc1)C1CCOCC1` (single isomer, unassigned) [Example 583, 3-(3-((4-(difluoromethoxy)phenyl)amino)-4-(ethyl(tetrahydro-2H-pyran-4-yl)amino)phenyl)-3-phenylpropanoic acid], the concentration for half-maximal inhibition (IC50) is less than 50 nM.
